This note sets out measurements from article PMC4889062, “Tachykinin-Related Peptides Share a G Protein-Coupled Receptor with Ion Transport Peptide-Like in the Silkworm Bombyx mori” (PLoS ONE, 2016).

pEC50: −log10 of the molar value. Peptide text beside a SMILES is read from it.

What is called pEC50 is the negative decadic logarithm of the EC50, by convention in mol/L.

The target of one test is T1, BNGR-A24 (Bombyx mori, UniProt B3XXN7).
T1 sequence (B3XXN7 1-391): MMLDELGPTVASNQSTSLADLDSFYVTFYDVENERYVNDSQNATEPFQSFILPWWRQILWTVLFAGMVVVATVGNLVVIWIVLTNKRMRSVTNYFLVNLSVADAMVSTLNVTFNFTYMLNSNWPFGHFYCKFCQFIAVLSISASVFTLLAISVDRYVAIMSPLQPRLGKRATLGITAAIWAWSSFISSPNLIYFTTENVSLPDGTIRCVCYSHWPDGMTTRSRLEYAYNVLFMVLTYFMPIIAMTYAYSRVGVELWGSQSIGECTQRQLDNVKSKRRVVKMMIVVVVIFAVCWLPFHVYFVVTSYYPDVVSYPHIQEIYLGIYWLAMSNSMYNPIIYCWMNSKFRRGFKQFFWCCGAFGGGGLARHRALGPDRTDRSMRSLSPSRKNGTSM
In words: cell-based. As for the experimental part: (§1) The assays were performed as previously reported. Briefly, HEK293T cells seeded on a glass-based dish were co-transfected with pME18S plasmids carrying BNGRs and the promiscuous G protein alpha subunit, Gα15. Following 24 h incubation, the transfected cells were loaded with 500 μL of a Ca^2+ indicator solution (2 μM Fluo-4 AM [Dojin Chemicals, Kumamoto, Japan] and 0.01% Pluronic-F 127 [Anaspec, San Jose, CA, USA] in Opti-MEM [Life Technologies]) and incubated at 37°C for 30 min in a dark room. The cells were washed twice with Ringer’s solution and then 800 μL Ringer’s solution was added to the cells. Within a given run time, 100 μL of the following compounds were added sequentially: Ringer’s solution (at 15 s, vehicle control), the peptide of interest or a mixture with its potential competitor (at 60 s), and 100 μM ATP (at 120 s, an experimental control). Fluo-4-derived fluorescence was chronologically monitored using a confocal laser-scanning microscope (FV-1000D; Olympus, Tokyo, Japan), with the preinstalled dye mode for Fluo-3. At least three independent experiments were performed. Dose-response curves were generated and EC50 values were calculated from the obtained fitting curves.
In order to evaluate whether the three TRP receptor candidates, BNGR-A24, -A32, and -A33, function as receptors for B. mori TRPs, the response of these three BNGRs to chemically synthesized TRPs was examined using the Ca^2+ imaging assay.
The response of HEK293T cells co-expressing BNGR-A24 (A) or BNGR-A32 (B) and promiscuous mouse Gα15 to the TRPs was monitored using the Ca^2+ imaging technique. Dose-response curves are depicted as relative fluorescent intensity (mean ± S.D.; n = 3).

In another test the target is T2, BNGR-A32 (Bombyx mori, UniProt B3XXP5).
T2 sequence (B3XXP5 1-372): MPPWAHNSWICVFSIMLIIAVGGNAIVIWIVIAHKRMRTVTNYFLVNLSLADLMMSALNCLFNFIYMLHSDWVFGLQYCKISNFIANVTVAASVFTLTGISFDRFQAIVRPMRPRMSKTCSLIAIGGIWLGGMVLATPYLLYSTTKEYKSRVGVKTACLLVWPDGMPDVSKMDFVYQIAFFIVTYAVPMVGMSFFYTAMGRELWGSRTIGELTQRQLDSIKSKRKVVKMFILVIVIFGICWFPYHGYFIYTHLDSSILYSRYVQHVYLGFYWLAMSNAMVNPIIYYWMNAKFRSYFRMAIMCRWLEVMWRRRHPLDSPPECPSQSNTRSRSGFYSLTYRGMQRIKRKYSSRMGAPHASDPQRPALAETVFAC
Put plainly: Ca2+ imaging assay of BNGR-A32 in HEK293T cells co-expressing Gα15. The test is classed as cell-based. Particulars: HEK293T cells co-expressing BNGR-A32 and promiscuous mouse Gα15; Fluo-4 Ca2+ imaging; from fitted dose-response curves, n = 3. As for the experimental part: as §1, with “curves. […]” for “curves.”
The response of HEK293T cells co-expressing BNGR-A24 (A) or BNGR-A32 (B) and promiscuous mouse Gα15 to the TRPs was monitored using the Ca^2+ imaging technique. […]

As to `CSCC[C@H](NC(=O)CNC(=O)[C@H](Cc1ccccc1)NC(=O)[C@H](Cc1ccccc1)NC(=O)CNC(=O)[C@H](CCSC)NC(=O)[C@H](CCC(N)=O)NC(=O)CN)C(=O)N[C@@H](CCCNC(=N)N)C(N)=O` [TK-5] (H-GQMGFFGMR-NH2), the pEC50 was 8.64 on BNGR-A24 and 9.32 at BNGR-A32.
